{
  "source": "patent US11357786B2",
  "about": "“Synthetic disugar hydrocarbons as natural analogs to control microbial behaviors” (Syracuse University, priority 2014, dated 2022)",
  "key": {"wild type PAO1": {"test_system": "wild type PAO1", "experiment": "Swarming motility of wild type PAO1 on soft agar (antagonist assay)", "format": "cell-based, Pseudomonas aeruginosa", "conditions": "for Swarming motility of wild type PAO1: 85 μM in soft agar, 24 h; for Effect on PAO1 swarming: concentration not given", "outline": "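Wild-type PAO1 culture (OD600 ~0.4–0.6, 3 μl) spotted on M8 swarm agar with 0.2% glucose, 0.5% casamino acids, 1 mM MgSO4 and 0.5% agar. Plates incubated 12 h at 37 °C then 12 h at room temperature; swarm area measured by cutting and weighing printed plate images.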"}, "[1]": {"test_system": "nonswarming P. aeruginosa mutant rhlA", "experiment": "Swarming motility of nonswarming rhlA mutant on soft agar (reactivation / agonist assay)", "format": "cell-based, Pseudomonas aeruginosa", "conditions": "85 μM in soft agar (0.5%), 24 h", "outline": "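rhlA transposon mutant of PAO1 (3 μl, OD600 0.4–0.6) inoculated on M8 soft agar (0.2% glucose, 0.5% casamino acids, 1 mM MgSO4, 0.5% agar) with test compound to find swarming agonists. Incubated 12 h at 37 °C plus 12 h at room temperature; swarm area measured by weighing paper cut-outs of imaged swarms.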"}, "PAO1 and rhlA": {"test_system": "PAO1 and rhlA", "experiment": "Bacterial growth on soft agar swarm plate", "format": "cell-based, Pseudomonas aeruginosa", "description": "Swarm agar plates were based on M8 medium supplemented with 0.2% glucose, 0.5% casamino acid, 1 mM MgSO4 and […]. 17 For each set of experiment all the swarm plates were poured from same batch of agar and allowed to dry for 1 h before inoculation of bacteria. Bacterial culture (3 μl) (wild type PAO1 or rhlA mutant) with OD600 between […] was inoculated on the solidified agar plates. Swarm agar plates were incubated at 37° C. for 12 h and then incubated for additional 12 h at room temp. Chronological images of swarm plates were taken using a camera. To measure swarming area, sizes of the petridish in all swarming images were adjusted to a pre-assigned diameter and images were printed on copying paper (Xerox-business 4200). Weight of a 1 cm^2 copy paper square was roughly ˜8.0 mg. swarming images on the copy paper were cut and weighed, the swarm area was calculated by dividing the weight of image by weight of 1 cm^2 square (8 mg)."}, "PAO1 biofilm": {"test_system": "PAO1 biofilm", "experiment": "Crystal violet based static biofilm inhibition assay, DSHs in LB media (Examples 2 and 4)", "format": "cell-based, Pseudomonas aeruginosa", "conditions": "for Inhibition of PAO1 biofilm formation (surface attached): 160 μM, 24 h, LB media; for Anti-biofilm activity (biofilm inhibition): concentration not given", "outline": "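PAO1 subculture (OD600 ~0.1) was grown statically in LB at 37° C for 24 h with or without DSHs (screened at 160 μM). Surface-attached biofilm was then stained with 0.1% crystal violet, solubilised in 30% AcOH and read at 600 nm. Values are the mean of 4 wells.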"}, "[2]": {"test_system": "planktonic Pseudomonas aeruginosa (PAO1)", "experiment": "Planktonic bacterial growth (OD600 growth curve)", "format": "cell-based", "conditions": "160 μM, LB", "description": "Antimicrobial activities of disaccharide hydrocarbons against planktonic growth. Overnight inoculum of PAO1 was sub-cultured to an OD600˜0.1 and then aliquoted (200 μL) into the wells of a micro-titer plate and DSHs (˜160 μM) were then added to assigned wells. Wells with no-agents were created as a positive control. The micro-titer plate was then placed in a rotary shaker (250 rpm at 37° C.) and optical density was measured after regular intervals of time using Biotek ELx800 ™ absorbance microplate reader (BioTek Instruments, Inc., Winooski, Vt.) using Gen5™ data analysis software. The OD600 values were taken in sterile conditions over 24 h. The OD600 values were plotted against time to obtain a growth curve for planktonic growth with or without agents.\nOptical density was measured using Biotek ELx800 ™ absorbance microplate reader (BioTek Instruments, Inc., Winooski, Vt.) using Gen5™ data analysis software. The OD600 values were taken in sterile conditions at 0, 2, 4, 6, 8, 10, 12, and 24 h after bacterial culture inoculation in 96-well polystyrene plate with and without agents."}, "1-day old PAO1 biofilm": {"test_system": "1-day old PAO1 biofilm", "experiment": "Crystal violet assay for dispersion of 1-day old biofilm, DSHs (Examples 2 and 4)", "format": "cell-based, Pseudomonas aeruginosa", "conditions": "160 μM, another 24 h", "description": "The effect that DSHs have on the adhesion of PAO1-EGFP on polystyrene surface (microtiter plate) was also examined. PAO1-EGFP is a P. aeruginosa strain that constitutively expresses green fluorescent protein. In the adhesion assays, PAO1-EGFP was grown in microtiter plate for 24-hours in LB-media with (160 μM) or without DSHs. After 24-hours, the fluorescent signal obtained from surface adhered PAO1-EGFP was measured. Percent reduction in fluorescence was calculated by comparing fluorescent signal from PAO1-EGFP grown in LB-media with the signal from wells that had DSHs (FIG. 29A). To study the effect of DSHs on biofilm formation, Pseudomonas aeruginosa (PAO1) was grown in LB-media with (160 μM) or without DSHs at 37° C. under static conditions within wells of microtiter plates. After 24 hours, the surface attached biofilms adhering to the bottom of the wells were stained with crystal-violet dye and the biofilm was quantified by measuring absorbance at 600 nm (OD600). The percent inhibition was calculated by comparing biofilm content of wells with no added agents (control) with the biofilm content from wells that had 160 μM of DSHs (FIG. 29A). Similar to inhibition, the surface attached biofilm after dispersion with DSHs was quantified with crystal-violet staining and absorbance measurement at 600 nm, except that for dispersion, biofilm was first grown for 1 day in just LB-media without any DSHs after which DSHs were added and plates were incubated for additional 24 hours followed by quantification (FIG. 29B).\nCrystal violet based assay for quantifying dispersion of 1-day old PAO1 biofilms were Plate for set up similar to inhibition assay with a slight modification. Wells of the micro-titer plate was inoculated with (200 μL) bacterial subculture (PAO1 subculture OD600 ˜0.1). The plates were incubated at 37° C. for 24 hours to allow biofilm formation. After 24 hours, bacterial culture was gently pipetted out and appropriate volume of DSH were added followed by addition of fresh LB medium (200 μL). The microtiter plate was incubated for an additional 24 hours at 37° C., following which, similar to work up of inhibition assay, culture was removed, wells were washed and CV-dye was introduced, followed by washing and destaining with 30% AcOH solution in water and quantification at 600 nm. Here again, only the surface attached biofilm dispersed was reported by comparing wells with DSHs with wells with no agent.\nDose dependence assays for biofilm inhibition and dispersion. […] Both for biofilm inhibition and dispersion, predetermined volumes of DSH stocks were added to the assigned wells to span a concentration range between 0.5 μM-170 μM. Percent biofilm inhibition of dispersion was calculated by comparing to wells with no agent. The percent biofilm inhibition or dispersion was plotted versus concentration of DSHs. The linear values were logarithmically curve fitted using equation […]. The half maximal inhibitory concentration for both biofilm inhibition and dispersion (IC50 and DC50) were thus obtained."}, "PAO1-EGFP": {"test_system": "PAO1-EGFP", "experiment": "Fluorescence adhesion assay on polystyrene, DSHs (Examples 2 and 4)", "format": "cell-based, Pseudomonas aeruginosa", "conditions": "160 μM", "description": "The ability of DSHs was tested to inhibit Pseudomonas aeruginosa adhesion, biofilm and to disperse pre-formed biofilm. To quantify the amount of PAO1/EGFP attached on the surface of micro titer plates with or without the synthesized DSHs, fluorescence emitted by green fluorescent proteins (GFP) was quantified (see supporting info for details). Crystal violet (CV) based static biofilm assay (see supporting info) was used to screen the anti-biofilm potencies of all synthesized agents. Both surface attached (SA) (FIG. 17) and total (SA+air-liquid interface) biofilm of P. aeruginosa was quantified. […] CV assays were also used to quantify the amount of P. aeruginosa biofilm remaining after dispersion experiments (FIG. 19). Initially, all agents were screen for anti-biofilm activities (both inhibition and dispersion) at 160 μM. […]\nThe effect that DSHs have on the adhesion of PAO1-EGFP on polystyrene surface (microtiter plate) was also examined. […] After 24-hours, the fluorescent signal obtained from surface adhered PAO1-EGFP was measured. Percent reduction in fluorescence was calculated by comparing fluorescent signal from PAO1-EGFP grown in LB-media with the signal from wells that had DSHs (FIG. 29A). […] After 24 hours, the surface attached biofilms adhering to the bottom of the wells were stained with crystal-violet dye and the biofilm was quantified by measuring absorbance at 600 nm (OD600). […]"}},
  "note": "“Also recorded” adds a separate entry of the source.",
  "data": [
    {"molecule": "CC(C)=CCC/C(C)=C/CC/C(C)=C/CO[C@@H]1O[C@H](CO)[C@@H](O[C@@H]2O[C@H](CO)[C@@H](O)[C@H](O)[C@H]2O)[C@H](O)[C@H]1O", "note": "[FβC (11), farnesyl-β-cellobioside]", "values": [
      {"measurement": "Swarming motility of wild type PAO1", "setting": "wild type PAO1", "value": "weak promotion of swarming motility of wild type PAO1"},
      {"measurement": "Effect on PAO1 swarming", "setting": "wild type PAO1", "value": "no apparent effect on PAO1 swarming"},
      {"measurement": "Swarming motility of rhlA mutant", "setting": "[1]", "value": "weak activation of rhlA swarming motility"},
      {"measurement": "Bacterial growth on soft-agar plate", "setting": "PAO1 and rhlA; 160 μM, PAO1 and rhlA", "value": "complete abolition of bacterial growth on the soft-agar plate"},
      {"measurement": "Bacterial growth on soft agar (~0.5%) plate", "setting": "PAO1 and rhlA; PAO1, concentration not stated", "value": "inhibited bacterial (PAO1) growth on a soft agar"},
      {"measurement": "Inhibition of PAO1 biofilm formation (surface attached)", "setting": "PAO1 biofilm; listed as 11: FβC, 160 µM", "value": "poor anti-biofilm activity"},
      {"measurement": "Anti-biofilm activity (biofilm inhibition)", "setting": "PAO1 biofilm", "value": "did not show anti-biofilm activities"},
      {"measurement": "Inhibition of planktonic growth of Pseudomonas aeruginosa", "setting": "[2]", "value": "did not inhibit the planktonic growth"}
    ]},
    {"molecule": "dodecyl-β-cyclodextrin [DβCDS (18)]", "values": [
      {"measurement": "Swarming motility of wild type PAO1", "setting": "wild type PAO1", "value": "no significant effect on the swarming motility"},
      {"measurement": "Effect on PAO1 swarming", "setting": "wild type PAO1", "value": "no apparent effect on PAO1 swarming"},
      {"measurement": "Dispersion of 24-h old PAO1 biofilm", "setting": "1-day old PAO1 biofilm", "value": "promoted biofilm formation instead of causing dispersion"},
      {"measurement": "Swarming motility of rhlA mutant", "setting": "[1]", "value": "no significant effect on the swarming motility"},
      {"measurement": "Adhesion inhibition of PAO1-EGFP on polystyrene", "setting": "PAO1-EGFP", "value": 29, "unit": "%"},
      {"measurement": "Inhibition of PAO1 biofilm formation (surface attached)", "setting": "PAO1 biofilm", "value": "insignificant biofilm inhibition"},
      {"measurement": "Inhibition of PAO1 biofilm formation (surface attached)", "setting": "PAO1 biofilm; listed as 18: DβCDS, 160 µM", "value": "increased the biofilm content"},
      {"measurement": "Anti-biofilm activity (biofilm inhibition)", "setting": "PAO1 biofilm", "value": "weak anti-biofilm activity; also recorded: did not show anti-biofilm activities"}
    ]}
  ]
}
